Measured values published in patent US12398154B2, “Azaquinazoline pan-KRas inhibitors” (Mirati Therapeutics, Inc., priority 2020, dated 2025).

How the values were obtained:
KRas G12S = KRas G12S (Homo sapiens, UniProt P01116, G12S); test: biochemical;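 also: TR-FRET displacement binding to KRas, read after one hour incubation at room temperature, IC50 from four-parameter fit of percent of control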
Experimental: (§1) The ability of a compound to bind to KRas was measured using a TR-FRET displacement assay. […] After a 60-minute incubation at room temperature, the reaction was measured using a BMG LABTECH CLARIO star Plus via TR-FRET. […] The POC values were fit to a 4-parameter IC50 equation and the IC50 value reported.

KRas G12D = KRas G12D (Homo sapiens, UniProt P01116, G12D); test: biochemical;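 also: TR-FRET displacement binding assay on KRas, read after a one-hour incubation at room temperature, IC50 fitted from percent-of-control values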
Chain of KRas G12D (P01116 1-169 isoform P01116-2 G12D): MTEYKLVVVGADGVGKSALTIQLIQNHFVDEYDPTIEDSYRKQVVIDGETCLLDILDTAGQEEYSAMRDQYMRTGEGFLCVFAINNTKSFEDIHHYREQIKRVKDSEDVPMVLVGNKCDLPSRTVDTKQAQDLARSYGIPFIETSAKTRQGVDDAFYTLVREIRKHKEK
Experimental: as §1

KRas Q61H = target: T1, KRas Q61H (Homo sapiens, UniProt P01116, Q61H); test: KRas binding assay (TR-FRET displacement);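 also: TR-FRET signal read after one hour at room temperature, IC50 derived by four-parameter fitting of percent-of-control values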
T1 construct: Biotinylated KRas (corresponding to amino acids 1-169, produced at Accelegan Inc.); biotin (biotinylated); purchased Accelegan Inc
T1 sequence (P01116 1-169 isoform P01116-2 Q61H): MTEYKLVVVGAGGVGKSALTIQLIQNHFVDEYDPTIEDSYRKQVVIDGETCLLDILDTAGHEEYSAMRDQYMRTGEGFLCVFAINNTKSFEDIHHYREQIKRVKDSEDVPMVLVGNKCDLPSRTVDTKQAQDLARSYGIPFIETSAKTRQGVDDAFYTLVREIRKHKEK
Experimental: as §1

KRas G12V = KRas G12V (Homo sapiens, UniProt P01116, G12V); test: biochemical;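 also: KRas binding measured by TR-FRET displacement at room temperature, IC50 fitted from percent of control values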
Chain of KRas G12V (P01116 1-169 isoform P01116-2 G12V): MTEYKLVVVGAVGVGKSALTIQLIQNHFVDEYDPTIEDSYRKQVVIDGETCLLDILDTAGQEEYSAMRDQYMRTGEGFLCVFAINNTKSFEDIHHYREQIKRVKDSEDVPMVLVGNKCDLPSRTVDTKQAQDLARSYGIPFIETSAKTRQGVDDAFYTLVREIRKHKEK
Experimental: as §1

KRas G13D = target: T2, KRas G13D (Homo sapiens, UniProt P01116, G13D); test: KRas binding assay (TR-FRET displacement);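 also: One-hour room temperature incubation before TR-FRET reading, IC50 from a four-parameter curve fit to percent-of-control data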
T2 construct: Biotinylated KRas (corresponding to amino acids 1-169, produced at Accelegan Inc.); biotin (biotinylated); purchased Accelegan Inc
T2 sequence (P01116 1-169 isoform P01116-2 G13D): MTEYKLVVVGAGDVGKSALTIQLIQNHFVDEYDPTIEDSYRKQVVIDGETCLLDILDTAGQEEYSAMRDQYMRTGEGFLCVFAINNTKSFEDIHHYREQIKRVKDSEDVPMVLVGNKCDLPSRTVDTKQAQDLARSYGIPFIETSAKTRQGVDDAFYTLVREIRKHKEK
Experimental: as §1

KRas G12R = KRas G12R (Homo sapiens, UniProt P01116, G12R); test: biochemical;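 also: TR-FRET displacement assay of compound binding to KRas, read after one hour at room temperature, potency from a four-parameter fit of percent-of-control values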
Chain of KRas G12R (P01116 1-169 isoform P01116-2 G12R): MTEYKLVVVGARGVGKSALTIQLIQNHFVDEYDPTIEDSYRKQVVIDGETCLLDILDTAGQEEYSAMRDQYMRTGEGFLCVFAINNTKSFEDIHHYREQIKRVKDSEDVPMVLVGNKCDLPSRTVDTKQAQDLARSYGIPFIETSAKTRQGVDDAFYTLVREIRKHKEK
Experimental: as §1

KRas G12C = KRas G12C (Homo sapiens, UniProt P01116, G12C); test: biochemical;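 also: binding to KRas assessed by TR-FRET displacement after one hour incubation at room temperature, potency fitted from percent-of-control values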
Chain of KRas G12C (P01116 1-169 isoform P01116-2 G12C): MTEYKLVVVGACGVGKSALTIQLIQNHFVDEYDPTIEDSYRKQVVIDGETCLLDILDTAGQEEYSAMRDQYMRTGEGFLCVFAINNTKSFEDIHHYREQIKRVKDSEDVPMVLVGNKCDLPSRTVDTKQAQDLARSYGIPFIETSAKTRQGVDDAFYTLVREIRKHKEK
Experimental: as §1

KRas G12A = KRas G12A (Homo sapiens, UniProt P01116, G12A); test: biochemical;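 also: binding to KRas measured by TR-FRET displacement after one hour at room temperature, IC50 from a four-parameter fit of percent-of-control values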
Chain of KRas G12A (P01116 1-169 isoform P01116-2 G12A): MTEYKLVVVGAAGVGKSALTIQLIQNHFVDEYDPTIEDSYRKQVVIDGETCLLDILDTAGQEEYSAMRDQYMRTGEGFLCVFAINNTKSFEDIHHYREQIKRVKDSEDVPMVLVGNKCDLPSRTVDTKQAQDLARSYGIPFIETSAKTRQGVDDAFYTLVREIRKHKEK
Experimental: as §1

KRas WT = KRas WT (Homo sapiens, UniProt P01116); test: biochemical;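 also: binding to KRas read as TR-FRET displacement after a one-hour room-temperature incubation, IC50 derived from percent-of-control values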
Chain of KRas WT (P01116 1-169 isoform P01116-2): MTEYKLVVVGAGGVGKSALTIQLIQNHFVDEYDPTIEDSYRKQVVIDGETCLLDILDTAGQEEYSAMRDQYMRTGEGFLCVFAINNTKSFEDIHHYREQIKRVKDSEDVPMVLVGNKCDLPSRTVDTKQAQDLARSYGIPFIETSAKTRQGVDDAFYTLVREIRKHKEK
Experimental: as §1

pERK in PSN1 cells = test: Inhibition of KRas phosphorylation of ERK (Cisbio HTRF pERK assay); settings: Homo sapiens, PSN1, 3 h, read-out: Inhibition (HTRF IC50) of KRas-mediated Phosphorylation of ERK, PSN1
pERK in MKN1 cells = test: as above; settings: Homo sapiens, MKN-1, 3 h, read-out: Inhibition (HTRF IC50) of KRas-mediated Phosphorylation of ERK, MKN1
pERK in HCT116 cells = test: as above; settings: Homo sapiens, HCT-116, read-out: Inhibition (HTRF IC50) of KRas-mediated Phosphorylation of ERK, HCT116
pERK in H727 cells = test: as above; settings: Homo sapiens, NCI-H727, read-out: Inhibition (HTRF IC50) of KRas-mediated Phosphorylation of ERK, H727
pERK in ASPC1 cells = test: as above; settings: Homo sapiens, ASPC1, read-out: Inhibition (HTRF IC50) of KRas-mediated Phosphorylation of ERK, AsPC-1

Chain of KRas G12S (P01116 1-169 isoform P01116-2 G12S): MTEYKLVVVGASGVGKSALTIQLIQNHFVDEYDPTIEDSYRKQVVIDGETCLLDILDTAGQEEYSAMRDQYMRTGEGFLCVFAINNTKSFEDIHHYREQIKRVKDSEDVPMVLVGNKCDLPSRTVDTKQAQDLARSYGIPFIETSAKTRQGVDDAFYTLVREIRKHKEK

SMILES | IC50 (KRas G12S) | IC50 (KRas G12D) | IC50 (KRas Q61H) | IC50 (KRas G12V) | IC50 (KRas G13D) | IC50 (KRas G12R) | IC50 (KRas G12C) | IC50 (KRas G12A) | IC50 (KRas WT) | IC50 (pERK in PSN1 cells) | IC50 (pERK in MKN1 cells) | IC50 (pERK in HCT116 cells) | IC50 (pERK in H727 cells) | IC50 (pERK in ASPC1 cells)
OC1CCC12CCCN(c1nc(OCC34CCCN3CCC4)nc3c(F)c(-c4cccc5cccc(F)c45)ncc13)C2 (centres unmarked) [Example 233, 6-(8-fluoro-7-(8-fluoronaphthalen-1-yl)-2-((tetrahydro-1H-pyrrolizin-7a(5H)-yl)methoxy)pyrido[4,3-d]pyrimidin-4-yl)-6-azaspiro[3.5]nonan-1-ol] | 7.45 µM | 6.7 µM | 5350 nM | 4.64 µM | 7380 nM | 5.56 µM | 6.15 µM | 2.65 µM | 4.3 µM |  |  |  |  | 
NC(=O)N1CC(Nc2nc(OCC34CCCN3CCC4)nc3c(F)c(-c4cccc5cccc(Cl)c45)ncc23)C1 [Example 107, 3-((7-(8-chloronaphthalen-1-yl)-8-fluoro-2-((tetrahydro-1H-pyrrolizin-7a(5H)-yl)methoxy)pyrido[4,3-d]pyrimidin-4-yl)amino)azetidine-1-carboxamide] | 6.85 µM | 10.8 µM | 8780 nM | 3.41 µM | 8790 nM | 4.62 µM | 3.52 µM | 6.52 µM | 8.53 µM |  |  |  |  | 
N#CC1CCCN(c2nc(OCC34CCCN3CCC4)nc3c(F)c(-c4cccc5cccc(F)c45)ncc23)CC1 (centres unmarked) [Example 87, 1-(8-fluoro-7-(8-fluoronaphthalen-1-yl)-2-((hexahydro-1H-pyrrolizin-7a-yl)methoxy)pyrido[4,3-d]pyrimidin-4-yl)azepane-4-carbonitrile] | 10.8 µM | 3.36 µM | 9500 nM | 3.66 µM | 5260 nM | 11.9 µM | 5.94 µM | 7.12 µM | 6.09 µM |  |  |  |  | 
Fc1c(-c2cccc3cccc(F)c23)ncc2c(Nc3ccc4[nH]ncc4c3)nc(OCC34CCCN3CCC4)nc12 [Example 100, 8-fluoro-7-(8-fluoronaphthalen-1-yl)-2-((hexahydro-1H-pyrrolizin-7a-yl)methoxy)-N-(1H-indazol-5-yl)pyrido[4,3-d]pyrimidin-4-amine] | 28.8 µM | 11.8 µM | 42000 nM | 17.3 µM | 49300 nM | ≥ 100 µM | 39.9 µM | 50.4 µM | 40.3 µM |  |  |  |  | 
NC(=O)c1cc2n(n1)CCCN(c1nc(OCC34CCCN3CCC4)nc3c(F)c(-c4cccc5cccc(F)c45)ncc13)C2 [Example 258, 5-(8-fluoro-7-(8-fluoronaphthalen-1-yl)-2-((hexahydro-1H-pyrrolizin-7a-yl)methoxy)pyrido[4,3-d]pyrimidin-4-yl)-5,6,7,8-tetrahydro-4H-pyrazolo[1,5-a][1,4]diazepine-2-carboxamide] | 1.01 µM | 0.32 µM | 4610 nM | 0.858 µM | 4380 nM | 1.18 µM | 1.38 µM | 2.07 µM | 3.25 µM |  |  |  |  | 
Nc1cc2n(n1)CCCN(c1nc(OCC34CCCN3CCC4)nc3c(F)c(-c4cccc5cccc(F)c45)ncc13)C2 [Example 78, 5-(8-fluoro-7-(8-fluoronaphthalen-1-yl)-2-((hexahydro-1H-pyrrolizin-7a-yl)methoxy)pyrido[4,3-d]pyrimidin-4-yl)-5,6,7,8-tetrahydro-4H-pyrazolo[1,5-a][1,4]diazepin-2-amine] | 1.24 µM | 0.677 µM | 3300 nM | 1.53 µM | 3800 nM | 1.76 µM | 1.26 µM | 2.2 µM | 2.68 µM |  |  |  |  | 
CCc1c(F)ccc2cc(O)cc(-c3ncc4c(NCc5c[nH]c6ncccc56)nc(OC[C@@]56CCCN5C[C@H](F)C6)nc4c3F)c12 [Example 62, 4-(4-(((1H-pyrrolo[2,3-b]pyridin-3-yl)methyl)amino)-8-fluoro-2-(((2R,7aS)-2-fluorohexahydro-1H-pyrrolizin-7a-yl)methoxy)pyrido[4,3-d]pyrimidin-7-yl)-5-ethyl-6-fluoronaphthalen-2-ol] |  | 0.003 µM | ≤ 2 nM | ≤ 0.002 µM | 3 nM | ≤ 0.002 µM |  |  |  |  |  |  |  | 
C#Cc1c(F)ccc2cc(O)cc(-c3ncc4c(N5CC6C(=O)NC(=O)C6C5)nc(OC[C@@]56CCCN5C[C@H](F)C6)nc4c3F)c12 (stereo partly drawn) [Example 389, 5-(7-(8-ethynyl-7-fluoro-3-hydroxynaphthalen-1-yl)-8-fluoro-2-(((2R,7aS)-2-fluorohexahydro-1H-pyrrolizin-7a-yl)methoxy)pyrido[4,3-d]pyrimidin-4-yl)tetrahydropyrrolo[3,4-c]pyrrole-1,3(2H,3aH)-dione] | ≤ 0.002 µM | ≤ 0.002 µM |  | ≤ 0.002 µM |  | 0.003 µM | ≤ 0.002 µM | ≤ 0.002 µM | ≤ 0.002 µM | ≥ 10 µM | 0.095 µM | 1.09 µM | 0.97 µM | 0.268 µM
CCc1c(F)ccc2cc(O)cc(-c3ncc4c(N5CCC[C@]6(CC(=O)N6)C5)nc(OCC5(CN6CCCC6)CC5)nc4c3F)c12 [Example 319, (S)-6-(7-(8-ethyl-7-fluoro-3-hydroxynaphthalen-1-yl)-8-fluoro-2-((1-(pyrrolidin-1-ylmethyl)cyclopropyl)methoxy)pyrido[4,3-d]pyrimidin-4-yl)-1,6-diazaspiro[3.5]nonan-2-one] | ≤ 0.002 µM | ≤ 0.002 µM |  | ≤ 0.002 µM |  | ≤ 0.002 µM | ≤ 0.002 µM | ≤ 0.002 µM | ≤ 0.002 µM | ≥ 10 µM | 0.12 µM | 6.36 µM | 0.808 µM | 0.433 µM
CCc1c(F)ccc2cc(O)cc(-c3ncc4c(NCc5n[nH]cc5C)nc(OC[C@@]56CCCN5C[C@H](F)C6)nc4c3F)c12 [Example 161, 5-ethyl-6-fluoro-4-(8-fluoro-2-(((2R,7aS)-2-fluorohexahydro-1H-pyrrolizin-7a-yl)methoxy)-4-(((4-methyl-1H-pyrmzol-3-yl)methyl)amino)pyrido[4,3-d]pyrimidin-7-yl)naphthalen-2-ol] | 0.015 µM | 0.068 µM | 17 nM | 0.007 µM | 16 nM | 0.009 µM | 0.007 µM |  | 0.02 µM |  |  |  |  | 
Fc1c(-c2cccc3cccc(F)c23)ncc2c(N3CCCC4(CCC(F)C4)C3)nc(OCC34CCCN3CCC4)nc12 (centres unmarked) [Example 48, 8-fluoro-4-(2-fluoro-7-azaspiro[4.5]decan-7-yl)-7-(8-fluoronaphthalen-1-yl)-2-((hexahydro-1H-pyrrolizin-7a-yl)methoxy)pyrido[4,3-d]pyrimidine] |  | 18.4 µM | 19900 nM | 20.4 µM | 16000 nM | 24.1 µM |  |  |  |  |  |  |  | 
CC1(CNc2nc(OCC34CCCN3CCC4)nc3c(F)c(-c4cccc5cccc(F)c45)ncc23)CNC(=O)C1 (centres unmarked) [Example 35, 4-(((8-fluoro-7-(8-fluoronaphthalen-1-yl)-2-((hexahydro-1H-pyrrolizin-7a-yl)methoxy)pyrido[4,3-d]pyrimidin-4-yl)amino)methyl)-4-methylpyrrolidin-2-one] |  | 12.1 µM | 4010 nM | 2.52 µM | 1660 nM | 1.61 µM |  |  |  |  |  |  |  | 
O=C1CCC2(CCCN(c3nc(OCC45CCCN4CCC5)nc4c(F)c(-c5cccc6cccc(F)c56)ncc34)C2)C1 (centres unmarked) [Example 46, 7-(8-fluoro-7-(8-fluoronaphthalen-1-yl)-2-((hexahydro-1H-pyrrolizin-7a-yl)methoxy)pyrido[4,3-d]pyrimidin-4-yl)-7-azaspiro[4.5]decan-2-one] |  | 14.1 µM | 18500 nM | 24 µM | 8790 nM | 22.5 µM |  |  |  |  |  |  |  | 
CCc1c(F)ccc2cc(O)cc(-c3ncc4c(N5CCC[C@]6(C5)NC(=O)NC6=O)nc(OCC5(CN6CCCC6)CC5)nc4c3F)c12 [Example 322, (R)-7-(7-(8-ethyl-7-fluoro-3-hydroxynaphthalen-1-yl)-8-fluoro-2-((1-(pyrrolidin-1-ylmethyl)cyclopropyl)methoxy)pyrido[4,3-d]pyrimidin-4-yl)-1,3,7-triazaspiro[4.5]decane-2,4-dione] |  | ≤ 0.002 µM |  | ≤ 0.002 µM |  | ≤ 0.002 µM | ≤ 0.002 µM |  | ≤ 0.002 µM | 9.09 µM | 0.032 µM | 0.3 µM | 0.255 µM | 0.484 µM
